Laboratory results as given in patent US9340580B2, “Peptide with multiple epitopes” (priority 2007, dated 2016).
Several values for one entry are separate records, joined by “and”; a condition that tells them apart may be missing. Equal values may be shown once. Where a SMILES comes first, the peptide text is derived from it.

Key:
[1] = solubility pre-screen in an aqueous, acidic milieu; type: physicochemical
[2] = precipitation in the aqueous solution of the binding assay; type: physicochemical; details: aqueous solution of the MHC class II binding assay, read-out: Precipitation in assay: lowest concentration at which an insoluble white precipitate is seen
Source text: This is a characteristic of promiscuous HLA-DRB1* binders.

[3] = target: T1, human MHC class II allotype HLA-DRB1*1101 (human); assay: competitive MHC class II binding assay; competitor control peptide influenza haemagglutinin 307-319;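 note: each test peptide was scored on how well it displaces the known control binder from each human MHC class II allotype studied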
T1 construct: Source and construct of the MHC protein in the assay are not described

[4] = target: T2, human MHC class II allotype HLA-DRB1*0701 (human); assay: as above
T2 construct: Source and construct of the MHC protein in the assay are not described

CC[C@H](C)[C@H](NC(=O)[C@@H](NC(=O)[C@H](C)NC(=O)[C@@H](NC(=O)[C@H](C)NC(=O)[C@H](CO)NC(=O)[C@H](Cc1c[nH]cn1)NC(=O)[C@@H](NC(=O)[C@H](CCC(N)=O)NC(=O)[C@H](C)NC(=O)[C@H](CC(C)C)NC(=O)[C@H](C)NC(=O)[C@H](CCC(=O)O)NC(=O)[C@@H](N)CCCNC(=N)N)[C@@H](C)O)[C@@H](C)CC)C(C)C)C(=O)O [HDM09A] (H-REALAQTHSAIAVI-OH; N-terminus and C-terminus assumed)
Solubility test [1]: YES | solubility [2]: 1000 µM and 2900 µg/mL

CC[C@H](C)[C@H](N)C(=O)N[C@@H](CC(=O)O)C(=O)N[C@@H](CC(C)C)C(=O)N[C@@H](CCCCN)C(=O)NCC(=O)N[C@@H](CCC(=O)O)C(=O)N[C@@H](CC(C)C)C(=O)N[C@@H](CC(=O)O)C(=O)N[C@@H](CCSC)C(=O)N[C@@H](CCCNC(=N)N)C(=O)N[C@@H](CC(N)=O)C(=O)N[C@H](C(=O)N[C@@H](CCC(N)=O)C(=O)N[C@H](C(=O)N[C@@H](CCCNC(=N)N)C(=O)O)C(C)C)[C@@H](C)CC [HDM32A] (H-IDLKGELDMRNIQVR-OH)
Solubility test [1]: YES | solubility [2]: 5000 µM and 9000 µg/mL

CC[C@H](C)[C@H](N)C(=O)NCC(=O)N[C@H](C(=O)N[C@H](C(=O)N[C@@H](CC(=O)O)C(=O)N[C@@H](CC(C)C)C(=O)N[C@@H](CCCCN)C(=O)NCC(=O)N[C@@H](CCC(=O)O)C(=O)N[C@@H](CC(C)C)C(=O)N[C@@H](CC(=O)O)C(=O)N[C@@H](CCSC)C(=O)N[C@@H](CCCNC(=N)N)C(=O)N[C@@H](CC(N)=O)C(=O)O)[C@@H](C)CC)[C@@H](C)CC [HDM31] (H-IGIIDLKGELDMRN-OH)
solubility [2]: 1000 µM and 1800 µg/mL

CC(C)C[C@H](NC(=O)[C@H](CCC(N)=O)NC(=O)[C@H](Cc1ccccc1)NC(=O)[C@@H]1CCCN1C(=O)[C@H](CCCCN)NC(=O)CNC(=O)[C@@H](N)CCCNC(=N)N)C(=O)N[C@@H](CCC(=O)O)C(=O)N[C@@H](C)C(=O)N[C@H](C(=O)N[C@@H](Cc1ccccc1)C(=O)N[C@@H](CCC(=O)O)C(=O)N[C@@H](C)C(=O)N[C@@H](CC(N)=O)C(=O)N[C@@H](CCC(N)=O)C(=O)N[C@@H](CC(N)=O)C(=O)N[C@H](C(=O)O)[C@@H](C)O)C(C)C [HDM21B] (H-RGKPFQLEAVFEANQNT-OH; N-terminus and C-terminus assumed)
Solubility test [1]: YES | solubility [2]: 1000 µM and 1980 µg/mL

CC[C@H](C)[C@H](NC(=O)CNC(=O)[C@@H](NC(=O)[C@H](Cc1c[nH]cn1)NC(=O)[C@H](CCCNC(=N)N)NC(=O)[C@H](CCC(=O)O)NC(=O)[C@H](Cc1ccccc1)NC(=O)[C@H](CCCCN)NC(=O)[C@@H](N)CC(=O)O)[C@@H](C)CC)C(=O)N[C@H](C(=O)N[C@@H](CC(=O)O)C(=O)N[C@@H](CC(C)C)C(=O)N[C@@H](CCCCN)C(=O)O)[C@@H](C)CC [HDM30] (H-DKFERHIGIIDLK-OH; N-terminus and C-terminus assumed)
Solubility test [1]: YES | solubility [2]: 5000 µM and 7900 µg/mL

CC[C@H](C)[C@H](N)C(=O)N[C@@H](CC(=O)O)C(=O)N[C@@H](CC(C)C)C(=O)N[C@@H](CCCCN)C(=O)NCC(=O)N[C@@H](CCC(=O)O)C(=O)N[C@@H](CC(C)C)C(=O)N[C@@H](CC(=O)O)C(=O)N[C@@H](CCSC)C(=O)N[C@@H](CCCNC(=N)N)C(=O)N[C@@H](CC(N)=O)C(=O)N[C@H](C(=O)N[C@@H](CCC(N)=O)C(=O)O)[C@@H](C)CC [HDM32] (H-IDLKGELDMRNIQ-OH; N-terminus and C-terminus assumed)
Solubility test [1]: YES | solubility [2]: 5000 µM and 7700 µg/mL

CC[C@H](C)[C@H](NC(=O)[C@H](C)NC(=O)[C@@H](N)[C@@H](C)O)C(=O)N[C@@H](Cc1ccccc1)C(=O)N[C@@H](CCC(N)=O)C(=O)N[C@@H](CC(=O)O)C(=O)N[C@H](C(=O)N[C@H](C(=O)N[C@@H](CCCNC(=N)N)C(=O)N[C@@H](C)C(=O)N[C@@H](CCC(=O)O)C(=O)N[C@@H](CCSC)C(=O)N[C@H](C(=O)N[C@@H](CCCCN)C(=O)O)[C@@H](C)O)C(C)C)[C@@H](C)O [HDM48] (H-TAIFQDTVRAEMTK-OH; N-terminus and C-terminus assumed)
Solubility test [1]: YES | solubility [2]: 1000 µM and 1600 µg/mL

CC(C)C[C@H](NC(=O)[C@H](CCC(N)=O)NC(=O)[C@H](Cc1ccccc1)NC(=O)[C@@H]1CCCN1C(=O)[C@@H](N)CCCCN)C(=O)N[C@@H](CCC(=O)O)C(=O)N[C@@H](C)C(=O)N[C@H](C(=O)N[C@@H](Cc1ccccc1)C(=O)N[C@@H](CCC(=O)O)C(=O)N[C@@H](C)C(=O)N[C@@H](CC(N)=O)C(=O)N[C@@H](CCC(N)=O)C(=O)N[C@@H](CC(N)=O)C(=O)N[C@H](C(=O)O)[C@@H](C)O)C(C)C [HDM21] (H-KPFQLEAVFEANQNT-OH; N-terminus and C-terminus assumed)
Solubility test [1]: YES | solubility [2]: 200 µM and 300 µg/mL

CC[C@H](C)[C@H](NC(=O)[C@H](C)NC(=O)[C@H](CS)NC(=O)[C@H](C)NC(=O)[C@H](CC(C)C)NC(=O)[C@@H](NC(=O)CNC(=O)[C@@H](N)CC(=O)O)C(C)C)C(=O)N[C@@H](C)C(=O)N[C@H](C(=O)N[C@@H](Cc1c[nH]cn1)C(=O)N[C@@H](C)C(=O)N[C@@H](CCCCN)C(=O)N[C@H](C(=O)N[C@@H](CCCNC(=N)N)C(=O)O)[C@@H](C)CC)[C@@H](C)O [HDM26A] (H-DGVLACAIATHAKIR-OH; N-terminus and C-terminus assumed)
solubility [2]: 1000 µM and 1500 µg/mL

CC[C@H](C)[C@H](NC(=O)CNC(=O)[C@@H](NC(=O)[C@@H](N)Cc1c[nH]cn1)[C@@H](C)CC)C(=O)N[C@H](C(=O)N[C@@H](CC(=O)O)C(=O)N[C@@H](CC(C)C)C(=O)N[C@@H](CCCCN)C(=O)NCC(=O)N[C@@H](CCC(=O)O)C(=O)N[C@@H](CC(C)C)C(=O)N[C@@H](CC(=O)O)C(=O)N[C@@H](CCSC)C(=O)N[C@@H](CCCNC(=N)N)C(=O)N[C@@H](CC(N)=O)C(=O)O)[C@@H](C)CC [HDM31A] (H-HIGIIDLKGELDMRN-OH)
Solubility test [1]: YES | solubility [2]: 1000 µM and 1700 µg/mL

CC[C@H](C)[C@H](NC(=O)[C@H](CCC(=O)O)NC(=O)[C@@H](NC(=O)[C@H](CCCCN)NC(=O)[C@H](C)N)[C@@H](C)CC)C(=O)N[C@@H](CCCCN)C(=O)N[C@@H](C)C(=O)N[C@@H](CO)C(=O)N[C@@H](CC(C)C)C(=O)N[C@@H](CC(=O)O)C(=O)NCC(=O)N[C@@H](CC(C)C)C(=O)N[C@@H](CCC(=O)O)C(=O)O [HDM27] (H-AKIEIKASLDGLE-OH)
Solubility test [1]: YES | solubility [2]: 1000 µM and 1400 µg/mL

CC[C@H](C)[C@H](N)C(=O)NCC(=O)N[C@H](C(=O)N[C@@H](CCCCN)C(=O)N[C@@H](CC(=O)O)C(=O)N[C@@H](CC(C)C)C(=O)N[C@@H](CC(=O)O)C(=O)N[C@@H](C)C(=O)N[C@@H](Cc1ccccc1)C(=O)N[C@@H](CCCNC(=N)N)C(=O)N[C@@H](Cc1c[nH]cn1)C(=O)N[C@@H](Cc1ccc(O)cc1)C(=O)N[C@@H](CC(=O)O)C(=O)O)[C@@H](C)CC [HDM11] (H-IGIKDLDAFRHYD-OH)
Solubility test [1]: YES

CSCC[C@H](NC(=O)[C@H](CCC(=O)O)NC(=O)[C@H](C)NC(=O)[C@H](CCCNC(=N)N)NC(=O)[C@@H](NC(=O)[C@@H](NC(=O)[C@@H](N)CC(=O)O)[C@@H](C)O)C(C)C)C(=O)N[C@H](C(=O)N[C@@H](CCCCN)C(=O)N[C@H](C(=O)N[C@@H](CC(C)C)C(=O)N[C@@H](C)C(=O)N1CCC[C@H]1C(=O)O)C(C)C)[C@@H](C)O [HDM49] (H-DTVRAEMTKVLAP-OH; N-terminus and C-terminus assumed)
Solubility test [1]: YES

CC[C@H](C)[C@H](NC(=O)[C@H](C)NC(=O)[C@H](C)NC(=O)[C@@H](NC(=O)[C@H](C)NC(=O)[C@H](CCC(=O)O)NC(=O)[C@H](CC(=O)O)NC(=O)[C@@H](NC(=O)[C@H](C)NC(=O)[C@@H](N)CCCCN)C(C)C)C(C)C)C(=O)N[C@@H](CCC(=O)O)C(=O)N[C@@H](CCCCN)C(=O)N[C@@H](CO)C(=O)O [HDM28] (H-KAVDEAVAAIEKS-OH)
Solubility test [1]: YES | solubility [2]: 1000 µM and 1300 µg/mL

CSCC[C@H](NC(=O)[C@@H]1CCCN1C(=O)[C@H](CC(=O)O)NC(=O)[C@H](Cc1ccccc1)NC(=O)[C@@H](NC(=O)[C@H](CCC(=O)O)NC(=O)[C@H](CO)NC(=O)[C@@H](N)CCCCN)[C@@H](C)O)C(=O)N[C@@H](CCCCN)C(=O)N[C@H](C(=O)N1CCC[C@H]1C(=O)N[C@@H](CC(=O)O)C(=O)N[C@@H](Cc1c[nH]cn1)C(=O)N[C@@H](CO)C(=O)N[C@@H](CC(=O)O)C(=O)O)C(C)C [HDM29B] (H-KSETFDPMKVPDHSD-OH)
Solubility test [1]: YES | solubility [2]: 1000 µM and 1700 µg/mL

CC(C)C[C@H](NC(=O)[C@H](CC(=O)O)NC(=O)[C@@H](N)CCCCN)C(=O)N[C@@H](CC(=O)O)C(=O)N[C@@H](C)C(=O)N[C@@H](Cc1ccccc1)C(=O)N[C@@H](CCCNC(=N)N)C(=O)N[C@@H](Cc1c[nH]cn1)C(=O)N[C@@H](Cc1ccc(O)cc1)C(=O)N[C@@H](CC(=O)O)C(=O)NCC(=O)N[C@@H](CCCNC(=N)N)C(=O)N[C@H](C(=O)O)[C@@H](C)O [HDM12] (H-KDLDAFRHYDGRT-OH)
Solubility test [1]: YES

CC(C)C[C@H](NC(=O)[C@H](CCC(N)=O)NC(=O)[C@H](Cc1ccccc1)NC(=O)[C@@H]1CCCN1C(=O)[C@@H](N)CCCCN)C(=O)N[C@@H](CCC(=O)O)C(=O)N[C@@H](C)C(=O)N[C@H](C(=O)N[C@@H](Cc1ccccc1)C(=O)N[C@@H](CCC(=O)O)C(=O)N[C@@H](C)C(=O)N[C@@H](CC(N)=O)C(=O)N[C@@H](CCC(N)=O)C(=O)N[C@@H](CC(N)=O)C(=O)N[C@H](C(=O)N[C@@H](CCCCN)C(=O)O)[C@@H](C)O)C(C)C [HDM21A] (H-KPFQLEAVFEANQNTK-OH; N-terminus and C-terminus assumed)
Solubility test [1]: YES | solubility [2]: 5000 µM and 9300 µg/mL

RGLKQMKRVGDAN (Synthetic peptide, 84.0% purity) [HDM35]
ratio of its own IC50 to that of the control peptide [3]: 1.26

DKFERHIGIIDLK (Synthetic peptide, 81.4% purity) [HDM30]
ratio of its own IC50 to that of the control peptide [4]: 6.2
